Laboratory results from patent US8071654B2, “Inhibitors of thromboxane formation and action” (priority 2000, dated 2011).

Tests used:
[1] = target: T1, TX synthase (Homo sapiens, UniProt P24557); experiment: collagen-evoked TxB2 (and HHT) formation in washed human platelets, HPLC; type: cell-based; settings: for TX enzyme activity (% of control values, mean ± SD): n = 3, TxB2 and HHT
T1 construct: endogenous in cells; host or cells: washed human platelets
T1 sequence (P24557 1-533): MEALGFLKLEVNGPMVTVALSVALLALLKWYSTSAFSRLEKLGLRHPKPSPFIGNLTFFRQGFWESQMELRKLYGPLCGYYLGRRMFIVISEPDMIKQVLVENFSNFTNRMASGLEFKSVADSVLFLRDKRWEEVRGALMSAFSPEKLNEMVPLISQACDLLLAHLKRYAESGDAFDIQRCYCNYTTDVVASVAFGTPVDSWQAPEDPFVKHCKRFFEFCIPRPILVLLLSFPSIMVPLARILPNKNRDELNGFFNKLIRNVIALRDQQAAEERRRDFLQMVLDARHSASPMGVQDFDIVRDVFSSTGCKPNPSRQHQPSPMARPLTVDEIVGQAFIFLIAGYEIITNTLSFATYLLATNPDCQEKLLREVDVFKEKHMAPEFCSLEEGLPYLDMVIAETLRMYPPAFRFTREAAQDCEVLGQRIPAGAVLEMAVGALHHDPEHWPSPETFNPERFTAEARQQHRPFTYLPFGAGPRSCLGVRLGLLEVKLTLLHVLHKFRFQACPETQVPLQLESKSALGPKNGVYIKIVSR
Description: 0.5 ml of platelet suspension was added to siliconized glass tubes (four at a time) and heated with magnetic stirring to 37° for 1 min in a platelet aggregometer (PAP-4C). Either vehicle alone (ethanol, 1 μl) or hepoxilin analog was then added, followed two min later by agonist (collagen: 2 μg; PGH2: 100 ng/0.5 ml; U46619: 10 ng/0.5 ml or I-BOP: 2 ng/0.5 ml). The response was recorded for the next 5 min. In experiments where analysis of TxB2 and HHT were to be made by HPLC, the platelet suspension at the end of the experiment was diluted with ethyl acetate, 100 ng of prostaglandin B1 was added as internal standard, and the mixture was acidified to pH 3 with 0.1 N HCl. After centrifugation, the organic layer was separated, washed twice with water to neutrality, and evaporated to dryness. Half of the sample was taken and was resuspended in 1 ml ethyl acetate containing 20 μg ADAM reagent, and was left in the dark for 2 h (38). The solvent was then evaporated and the residue was acetylated with a solution of pyridine/acetic anhydride (3/1, v/v) during 16 h at 23°. The reagents were evaporated to dryness and the residue was resuspended in acetonitrile/water for HPLC analysis. In experiments where the conversion of tritiated PGH2 was to be monitored, the procedure described above was repeated with tritiated PGH2 instead of unlabeled PGH2. After extraction of the sample as described above, the radiolabeled compounds were analyzed by TLC. Dose response curves for varying amounts of test compounds were generated and the data expressed as % inhibition of collagen-induced platelet aggregation. Each point was investigated 5 times and statistical analysis of the data was carried out using Macintosh Statview statistical software.
Measurement of eicosanoids formed by platelets during treatment with collagen or the TP receptor agonists in the presence or absence of PBT-3 was carried out by HPLC after appropriate derivatization with a fluorescent tag (anthracyl diazomethane—ADAM) which forms a fluorescent ester (44). The method was adapted to measure the following compounds: TxB2, HHT, 12-HETE and M. The platelet suspension at the end of the experiment was mixed with ethyl acetate, 100 ng of prostaglandin B1 was added as internal standard and the mixture was acidified to pH 3 with 0.1 N HCl. After centrifugation, the organic layer was separated, washed twice with water to neutrality, and evaporated to dryness. The residue was resuspended in ethyl acetate and half of the sample was taken. It was diluted to 0.2 ml with ethyl acetate containing 20 μg ADAM reagent, and was left in the dark for 2 h. The solvent was then evaporated and the residue was acetylated with a solution of pyridine/acetic anhydride (3/1, v/v) for 16 h at 23°. The reagents were evaporated to dryness and the residue was resuspended in acetonitrile/water for HPLC analysis. Dose response curves for varying amounts of test compounds were generated and the data were expressed as % inhibition of agonist-induced platelet aggregation. Each point was investigated 3 times and statistical analysis of the data was carried out using Macintosh Statview statistical software.
Analysis of the anthryl (ADAM)-acetate derivative of TxB2, HHT and 12 HETE in the extracted platelet samples was carried out on a Hewlett Packard (1100 series) HPLC to which was attached a Shimadzu fluorescent detector (RF-10AXL). The detector was operated with excitation at 364 nm, emission at 411 nm. Chromatographic separation of the compound was carried out on a Waters C18 Novapak column (3.9×300 mm) using acetonitrile/water 80/20 at injection with a linear gradient to 100% acetonitrile during 20 min. TLC separation of tritiated platelet extracts was carried out on 20 cm silica gel G glass plates (Brinkman), with chloroform/methanol/acetic acid/water (90/9/1/0.65, v/v) as developing solvent in a paper lined glass tank at 23°. […]

[2] = intra ocular pressure in rats, eye drops, TonoPen; type: in vivo, Brown Norway rats; settings: 0.005%, one drop daily to left eye, after 10 days' treatment, vs untreated right eye
Description: Brown Norway rats (300 g) were purchased from Charles River (St. Constant, Que), and housed (two/cage) in an animal facility with free access to food and water. A light cycle of 12 h on and 12 h off was maintained. Animals were allowed to adjust for one week prior to treatment during which period they were handled daily to get them familiarized with the procedures.
Prior to treatment with test drugs, the rats' intra ocular pressures (IOP) were measured to establish baseline readings. One drop of Didocaine (0.5%, Dioptic Labs, Markham, Ont) was administered to each eye, and the pressure in each eye was measured with a TonoPen (Mentor XL, Innova Medical Ophthalmics, Toronto). The treatment protocol consisted of daily administration of one drop of one of the following substances to the left eye, the right eye being left untreated to act as a control. […] Following this, the animals were left without treatment for 2 weeks (wash-out), and then treatment was started again, the same animals receiving the same drugs. Results are calculated from at least 30 readings/test animal and presented as the mean±SEM (left eye vs right eye), with the exclusion of readings >50 and <10 which were considered spurious and artifactual readings.

TX enzyme activity (% of control values, mean ± SD) ([1]; PBT-3 0.05 μM): 94.2 ± 15.2^NS % of control
TX enzyme activity (% of control values, mean ± SD) ([1]; PBT-3 0.30 μM): 65.7 ± 6.0 % of control
TX enzyme activity (% of control values, mean ± SD) ([1]; PBT-3 0.60 μM): 41.0 ± 4.7 % of control
TX enzyme activity (% of control values, mean ± SD) ([1]; PBT-3 3.00 μM): 29.9 ± 6.7 % of control
inhibition of TxB2 formation in platelets, in words ([1]; Table 1, last column): significantly inhibited
IC50 ([1]; washed human platelets, read-out: IC50 for block of collagen-evoked formation of thromboxane): 800 nM
SMILES: CCCCC/C=C\CC1CC1[C@@H](O)/C=C\C/C=C\CCCC(=O)OC (stereo partly drawn) [PBT-3, 10(S)-hydroxy-11,12-cyclopropyl-eicosa-5Z,8Z,14Z-trienoic acid methyl ester]
effect on intra ocular pressure (IOP) [2]: significant reduction in IOP, comparable to that produced by latanoprost
